{
  "source": "patent EP0871441B1",
  "about": "“DFMO AND TAXOL FOR THE TREATMENT OR PREVENTION OF BREAST CANCER” (Ilex Oncology, Inc., priority 1996, dated 1998)",
  "key": {"ODC": {"molecular_target": "T1, ODC (Homo sapiens, UniProt P11926)", "T1 construct": "endogenous in cells; host or cells: MCF-7 cells, estrogen-treated", "T1 sequence (P11926 1-461)": "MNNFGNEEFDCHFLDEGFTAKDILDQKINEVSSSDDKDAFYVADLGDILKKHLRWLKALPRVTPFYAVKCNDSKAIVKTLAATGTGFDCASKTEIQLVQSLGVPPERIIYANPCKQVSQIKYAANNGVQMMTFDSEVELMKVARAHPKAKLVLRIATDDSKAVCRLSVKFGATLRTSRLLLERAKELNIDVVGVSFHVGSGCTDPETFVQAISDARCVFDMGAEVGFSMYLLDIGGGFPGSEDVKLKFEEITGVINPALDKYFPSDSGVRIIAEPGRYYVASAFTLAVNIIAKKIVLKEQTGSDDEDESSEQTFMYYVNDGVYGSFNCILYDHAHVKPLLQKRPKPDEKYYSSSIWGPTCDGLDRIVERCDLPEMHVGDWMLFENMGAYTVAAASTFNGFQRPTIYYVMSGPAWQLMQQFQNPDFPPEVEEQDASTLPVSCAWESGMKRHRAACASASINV", "conditions": "DFMO 5 mM, MCF-7 cells; cited from earlier work"}, "T-47D": {"tested_on": "T-47D", "conditions": "estrogen-responsive; cited from earlier work"}, "MCF-7 human breast tumor": {"tested_on": "MCF-7 human breast tumor", "test": "Tumor growth inhibition of MCF-7 mammary carcinoma implanted s.c. in ovariectomized nude mice", "assay_type": "in vivo", "method": "Female ovariectomized nude mice are implanted s.c. by trocar with 21 day release 0.25 mg estrogen pellets. The following day the mice are implanted s.c. by trocar fragments of MCF-7 mammary carcinomas harvested from s.c. growing MCF-7 tumors in nude mice hosts. When tumors are approximately 5 mm x 5 mm in size (about twenty days after inoculation), the animals are pair-matched into treatment and control groups, and the estrogen pellets removed. Each group contains 10 tumored mice, each of which is ear-tagged and followed individually throughout the experiment. The administration of drugs or vehicle begins the day the animals are pair-matched (Day 1). The doses, route of drug administration and schedule are selected as appropriate for the study in question. If the MTD dose of an agent is not known, it is determined in an initial dosing experiment in non-tumored mice. Mice are weighed twice weekly, and tumor measurements are taken by calipers twice weekly, starting on Day 1. These tumor measurements are converted to mg tumor weight by a well-known formula, L^2xW/2. The experiment is terminated when control tumors reach a size of 1 gram. […] Tumors are weighed and the mean tumor weight per group is calculated. […] A mean % tumor shrinkage can be calculated from data from the mice in a group that experienced tumor regressions. […]"}, "MCF-7 cells": {"tested_on": "MCF-7 cells", "conditions": "cited from earlier work"}, "MCF-7": {"tested_on": "MCF-7", "conditions": "MCF-7, estrogen-responsive; cited from earlier work"}, "BT-20": {"tested_on": "BT-20", "conditions": "BT-20, estrogen-unresponsive; cited from earlier work"}, "[1]": {"tested_on": "MDA-MB-231 human breast tumor", "test": "Tumor growth inhibition of MDA-MB-231 breast tumor implanted s.c. in nude mice", "assay_type": "in vivo", "conditions": "for % Tumor Growth Inhibition: with respect to control", "method": "The MDA-MB-23 1 human breast tumor cell line is estrogen independent. The cell line cannot be maintained in vitro and so was maintained in vivo in host nude mice. The tumor growth inhibition studies were conducted by transplanting MDA-MB-231 tumor cells from the host nude mouse to the subject and control nude mice of the study. The MDA-MB-231 cell line can be obtained from the American Type Culture Collection as ATCC HTB 26. Nude mice are implanted s.c. by trocar with fragments of MDA-MB-231 human breast tumor cells harvested from s.c. growing tumors in nude mice hosts. When tumors are approximately 5 mm x 5 mm in size (usually about ten to twenty days after inoculation), the animals are pair-matched into treatment and control groups. Each group contains 10 tumored mice, each of which is ear-tagged and followed individually throughout the experiment. The administration of drugs or vehicle begins the day the animals are pair-matched (Day 1). The doses, route of drug administration and schedule are selected as appropriate for the study in question. If the MTD dose of an agent is not known, it is determined in an initial dosing experiment in non-tumored mice. The experiment is usually terminated when control tumors reach a size of 1 g or 2 g for the tumor models. Mice are weighed twice weekly, and tumor measurements are taken by calipers twice weekly, starting on day 1. These tumor measurements are converted to mg tumor weight by a well-known formula, and from these calculated tumor weights, the termination date can be determined. Upon termination, all mice are weighed, sacrificed, and their tumors excised. Tumors are weighed, and the mean tumor weight per group is calculated. In this model, the mean treated tumor weight/mean control tumor weight x 100% (T/C) is subtracted from 100% to give the tumor growth inhibition (TGI) for each group. The final weight of a given tumor is subtracted from its own weight at the start of treatment on day 1. This difference divided by the initial tumor weight is the % shrinkage. A mean % tumor shrinkage can be calculated from data from the mice in a group that experienced regressions. If the tumor completely disappears in a mouse, this is considered a complete regression or complete tumor shrinkage. If desired, mice with partial or total tumor regressions can be kept alive past the termination date to see whether they live to become long term, tumor-free survivors. Statistics are performed on the data using primarily the log rank-value test. In the above procedure, a reduction in the growth, number, size, metastasis and/or reoccurrence of tumor in the animal is deemed a positive response."}, "[2]": {"conditions": "DFMO alone 0.5% in drinking water, p.o., ad libitum"}, "[3]": {"conditions": "DFMO alone 3% in drinking water, p.o., ad libitum"}, "[4]": {"conditions": "taxol alone 20 mg/kg, i.p., qdx5"}},
  "note": "“And” between values parts separate entries of the source, which are not always exact repeats. Equal values may be shown once.",
  "data": [
    {"molecule": "NCCC[C@](N)(C(=O)O)C(F)F", "note": "(racemic) [DFMO, alpha-difluoromethylornithine]", "values": [
      {"measurement": "ODC activity", "setting": "ODC", "result": "fully inhibited"},
      {"measurement": "inhibition of proliferation", "setting": "T-47D", "result": 80, "unit": "%"},
      {"measurement": "tumor growth inhibition (TGI) with respect to control", "setting": "MCF-7 human breast tumor; DFMO alone 0.5% wt in drinking water, p.o., ad libitum", "result": 44, "unit": "%"},
      {"measurement": "proliferation of MCF-7 cells, % of the controls", "setting": "MCF-7 cells; 0.1 mM DFMO, remaining proliferation", "result": 75, "unit": "%"},
      {"measurement": "inhibition of proliferation", "setting": "MCF-7", "result": 80, "unit": "%"},
      {"measurement": "inhibition of proliferation", "setting": "BT-20", "result": 50, "unit": "%"},
      {"measurement": "Final Tumor Wt. (Mean±SEM)", "setting": "[1]; [2]", "result": "1276.3±398.6"},
      {"measurement": "% Tumor Growth Inhibition", "setting": "[1]; [2]", "result": "19% and 19.2%"},
      {"measurement": "Final Tumor Wt. (Mean±SEM)", "setting": "[1]; [3]", "result": "782.7±111.4"},
      {"measurement": "% Tumor Growth Inhibition", "setting": "[1]; [3]", "result": "52% and 51.8%"}
    ]},
    {"molecule": "4-hydroxytamoxifen", "values": [
      {"measurement": "cell growth reduced to", "setting": "MCF-7 cells; 0.1µM 4-hydroxytamoxifen, remaining growth", "result": 72, "unit": "%"}
    ]},
    {"molecule": "CC(=O)O[C@H]1C(=O)[C@@]2(C)[C@H]([C@H](OC(=O)c3ccccc3)[C@]3(O)C[C@H](OC(=O)[C@H](O)[C@@H](NC(=O)c4ccccc4)c4ccccc4)C(C)=C1C3(C)C)[C@]1(OC(C)=O)CO[C@@H]1C[C@@H]2O", "note": "[Taxol]", "values": [
      {"measurement": "tumor growth inhibition (TGI) with respect to control", "setting": "MCF-7 human breast tumor; taxol alone 16 mg/kg, i.p., qdx5", "result": 28, "unit": "%"},
      {"measurement": "Final Tumor Wt. (Mean±SEM)", "setting": "[1]; [4]", "result": "301.6±72.9"},
      {"measurement": "% Tumor Growth Inhibition", "setting": "[1]; [4]", "result": 83.7, "unit": "%"},
      {"measurement": "% Tumor Growth Inhibition", "setting": "[1]; taxol alone 20 mg/kg, i.p., qdx5, listed as taxol", "result": 84, "unit": "%"}
    ]}
  ]
}
